Test results reported in PubChem BioAssay AID248 (DTP/NCI, 2004).
Several values for one entry are separate records, joined by “and”; a condition that tells them apart may be missing. Equal values may be shown once. Inconclusive results and toxic doses are left out.

Test system: L1210 leukemia ip in BDF1 mice, survival T/C
Assay: NCI In Vivo Anticancer Drug Screen. Data for tumor model L1210 Leukemia (intraperitoneal) in B6D2F1 (BDF1) mice
Settings: endpoint: mean survival time, higher = longer survival
Method in brief: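 Transplanted-tumor mice were given test agent; controls received vehicle only. Survival readings from the two groups were divided (treated over control).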

[1] = dose: 100.0 mg/kg/injection, schedule: Q01DX009 (ip), vehicle: Klucel (hydroxypropylcellulose) (HPC)
[2] = dose: 100.0 mg/kg/injection, schedule: Q04DX003 (ip), vehicle: Klucel (hydroxypropylcellulose) (HPC)
[3] = dose: 400.0 mg/kg/injection, schedule: Q04DX003 (ip), vehicle: Klucel (hydroxypropylcellulose) (HPC)
[4] = dose: 100.0 mg/kg/injection, schedule: Q01DX009 (ip), vehicle: saline with Tween-80
[5] = dose: 200.0 mg/kg/injection, schedule: Q01DX009 (ip), vehicle: saline with Tween-80
[6] = dose: 100.0 mg/kg/injection, schedule: Q04DX002 (ip), vehicle: saline
[7] = dose: 200.0 mg/kg/injection, schedule: Q04DX002 (ip), vehicle: saline
[8] = dose: 200.0 mg/kg/injection, schedule: Q04DX003 (ip), vehicle: Klucel (hydroxypropylcellulose) (HPC)
[9] = dose: 100.0 mg/kg/injection, schedule: Q01DX009 (ip), vehicle: saline
[10] = dose: 100.0 mg/kg/injection, schedule: Q01DX001 (ip), vehicle: saline
[11] = dose: 100.0 mg/kg/injection, schedule: Q04DX003 (ip), vehicle: saline
[12] = dose: 200.0 mg/kg/injection, schedule: Q04DX003 (ip), vehicle: saline
[13] = dose: 400.0 mg/kg/injection, schedule: Q04DX003 (ip), vehicle: saline
[14] = dose: 25.0 mg/kg/injection, schedule: Q01DX009 (ip), vehicle: saline
[15] = dose: 50.0 mg/kg/injection, schedule: Q01DX009 (ip), vehicle: saline

For `CNC(=O)c1cc(NC(=O)Nc2ccc(C3=NCCN3)cc2)cc(NC(=O)Nc2ccc(C3=NCCN3)cc2)c1`, the T/C (dose: 15.0 mg/kg/injection, schedule: Q01DX Z (ip), vehicle: saline) was 122 % of control, the T/C (dose: 60.0 mg/kg/injection, schedule: Q01DX Z (ip), vehicle: saline) was 216 % of control and the T/C (dose: 60.0 mg/kg/injection, schedule: Q01DX Z (oral), vehicle: saline) was 103 % of control. The T/C (dose: 120.0 mg/kg/injection, schedule: Q01DX Z (ip), vehicle: saline) was 114 % of control, the T/C (dose: 120.0 mg/kg/injection, schedule: Q01DX Z (oral), vehicle: saline) was 98 % of control and the T/C (dose: 240.0 mg/kg/injection, schedule: Q01DX Z (oral), vehicle: saline) was 106 % of control. The T/C (dose: 480.0 mg/kg/injection, schedule: Q01DX Z (oral), vehicle: saline) was 93 % of control.
With `CCOc1ccc(/C=N\N=C\c2ccc(OCC)cc2)cc1` the T/C [1] was 89 % of control, the T/C [2] was 93 % of control and the T/C [3] was 97 % of control.
With `COC(=O)c1[nH]c(=O)[nH]c(=O)c1[N+](=O)[O-]` the T/C (dose: 75.0 mg/kg/injection, schedule: Q01DX001 (ip), vehicle: saline) was 106 % of control, the T/C (dose: 150.0 mg/kg/injection, schedule: Q01DX001 (ip), vehicle: saline) was 93 % of control and the T/C (dose: 300.0 mg/kg/injection, schedule: Q01DX001 (ip), vehicle: saline) was 93 % of control.
In the case of `COc1ccc(C)cc1NC(=O)NNC(=O)c1ccc(Cl)cc1`, the T/C (dose: 50.0 mg/kg/injection, schedule: Q01DX009 (ip), vehicle: saline with Tween-80) is reported as 98 % of control, the T/C [4] is reported as 98 % of control and the T/C [5] is reported as 98 % of control.
In the case of `CC1CCN(C(=O)CCCCl)CC1`, the T/C [6] is reported as 104 % of control and the T/C [7] is reported as 114 % of control.
With `O=[N+]([O-])c1ccc(Oc2cccc(C(F)(F)F)c2)cc1` the T/C [2] was 95 % of control, the T/C [8] was 96 % of control and the T/C [3] was 96 % of control.
`CCOC(=O)c1cnc(SC)nc1Nc1ccccc1OC` was tested, and the T/C [2] was 90 % of control, the T/C [8] was 92 % of control and the T/C [3] was 87 % of control.
`COc1nc(Cl)nc(Cl)n1` was tested, and the T/C (dose: 6.0 mg/kg/injection, schedule: Q01DX Z (ip), vehicle: methylcellulose (MC)) was 89 % of control.
For `NC(=S)Nc1cccc(O)c1`, the T/C (dose: 100.0 mg/kg/injection, schedule: Q01DX009 (ip), vehicle: gum acacia) was 96 % of control, the T/C (dose: 100.0 mg/kg/injection, schedule: Q04DX003 (ip), vehicle: gum acacia) was 92 % of control and the T/C (dose: 200.0 mg/kg/injection, schedule: Q01DX009 (ip), vehicle: gum acacia) was 87 % of control. For the same compound, the T/C (dose: 200.0 mg/kg/injection, schedule: Q04DX003 (ip), vehicle: gum acacia) was 92 % of control, the T/C (dose: 400.0 mg/kg/injection, schedule: Q01DX009 (ip), vehicle: gum acacia) was 87 % of control and the T/C (dose: 400.0 mg/kg/injection, schedule: Q04DX003 (ip), vehicle: gum acacia) was 92 % of control.
`Cc1ncc(CO)c(/C=N/OCc2ccc(OCc3ccccc3)cc2)c1O` was tested, and the T/C (dose: 100.0 mg/kg/injection, schedule: Q04DX003 (ip), vehicle: saline with Tween-80) was 102 % of control and the T/C (dose: 200.0 mg/kg/injection, schedule: Q04DX003 (ip), vehicle: saline with Tween-80) was 100 % of control.
With `CCCCCCCCCCCCOP(OCCCCCCCCCCCC)OCCCCCCCCCCCC` the T/C [9] was 90 % of control, the T/C (dose: 200.0 mg/kg/injection, schedule: Q01DX009 (ip), vehicle: saline) was 88 % of control and the T/C (dose: 400.0 mg/kg/injection, schedule: Q01DX009 (ip), vehicle: saline) was 93 % of control.
With `N#CC(C#N)=Cc1csc2ccccc12` the T/C [10] was 93 % of control, the T/C (dose: 200.0 mg/kg/injection, schedule: Q01DX001 (ip), vehicle: saline) was 102 % of control and the T/C (dose: 400.0 mg/kg/injection, schedule: Q01DX001 (ip), vehicle: saline) was 102 % of control.
With `CCC(CCCN(CC)CCc1ccccc1)OC(=O)c1cc(OC)c(OC)c(OC)c1` (configuration not stated) the T/C (dose: 4.68 mg/kg/injection, schedule: Q01DX009 (ip), vehicle: saline) was 106 % of control, the T/C (dose: 9.37 mg/kg/injection, schedule: Q01DX009 (ip), vehicle: saline) was 100 % of control and the T/C (dose: 18.75 mg/kg/injection, schedule: Q01DX009 (ip), vehicle: saline) was 100 % of control. For the same compound, the T/C (dose: 18.75 mg/kg/injection, schedule: Q04DX003 (ip), vehicle: saline) was 118 % of control, the T/C (dose: 37.5 mg/kg/injection, schedule: Q01DX009 (ip), vehicle: saline) was 100 % of control and the T/C (dose: 37.5 mg/kg/injection, schedule: Q04DX003 (ip), vehicle: saline) was 97 % of control. The T/C (dose: 75.0 mg/kg/injection, schedule: Q01DX009 (ip), vehicle: saline) was 95 % of control and the T/C (dose: 75.0 mg/kg/injection, schedule: Q04DX003 (ip), vehicle: saline) was 103 % of control.
For `ClCc1cccc2c(CCl)cccc12`, the T/C (dose: 50.0 mg/kg/injection, schedule: Q01DX001 (ip), vehicle: saline) was 101 % of control and the T/C [10] was 101 % of control.
`ClC(Cl)(Cl)c1cccc(-c2nc(C(Cl)(Cl)Cl)nc(C(Cl)(Cl)Cl)n2)c1` was tested, and the T/C (dose: 100.0 mg/kg/injection, schedule: Q04DX002 (ip), vehicle: Klucel (hydroxypropylcellulose) (HPC)) was 106 % of control, the T/C (dose: 200.0 mg/kg/injection, schedule: Q04DX002 (ip), vehicle: Klucel (hydroxypropylcellulose) (HPC)) was 90 % of control and the T/C (dose: 400.0 mg/kg/injection, schedule: Q04DX002 (ip), vehicle: Klucel (hydroxypropylcellulose) (HPC)) was 100 % of control.
With `CC(=O)NCCC(=O)O` the T/C [11] was 95 % of control, the T/C [12] was 101 % of control and the T/C [13] was 95 % of control.
With `CCC(C)C(CCCN1CCOCC1)(CNC(=O)CN(CC)CC)c1cccc2ccccc12` (configuration not stated) the T/C [14] was 94 % of control, the T/C [15] was 97 % of control and the T/C [9] was 91 % of control. The T/C [11] was 102 % of control.
`O=C1C(N2CCOCC2)=C(N2CC2)C(=O)C(N2CCOCC2)=C1N1CC1` was tested, and the T/C (dose: 0.19 mg/kg/injection, schedule: Q04DX003 (ip), vehicle: saline) was 92 % of control and 102 % of control, the T/C (dose: 0.37 mg/kg/injection, schedule: Q04DX003 (ip), vehicle: saline) was 94 % of control and 107 % of control and the T/C (dose: 0.75 mg/kg/injection, schedule: Q01DX009 (ip), vehicle: saline) was 105 % of control and 118 % of control. For the same compound, the T/C (dose: 0.75 mg/kg/injection, schedule: Q04DX003 (ip), vehicle: saline) was 107 % of control and 113 % of control, the T/C (dose: 1.5 mg/kg/injection, schedule: Q01DX009 (ip), vehicle: saline) was 120 % of control and the T/C (dose: 1.5 mg/kg/injection, schedule: Q04DX003 (ip), vehicle: saline) was 105 % of control. The T/C (dose: 3.0 mg/kg/injection, schedule: Q04DX003 (ip), vehicle: saline) was 122 % of control, the T/C (dose: 3.12 mg/kg/injection, schedule: Q01DX001 (ip), vehicle: saline) was 86 % of control and the T/C (dose: 12.0 mg/kg/injection, schedule: Q04DX003 (ip), vehicle: saline) was 115 % of control.
For `O=C(NCC1=NCCN1)c1ccccc1`, the T/C [6] was 96 % of control, the T/C [7] was 89 % of control and the T/C (dose: 400.0 mg/kg/injection, schedule: Q04DX002 (ip), vehicle: saline) was 96 % of control.
In the case of `ClC12CCC(Cl)(CC1)C2(Cl)Cl`, the T/C [14] is reported as 95 % of control, the T/C [15] is reported as 103 % of control and the T/C [9] is reported as 96 % of control. For the same compound, the T/C [11] was 98 % of control, the T/C [12] was 95 % of control and the T/C [13] was 98 % of control.
With `CCOc1ccccc1NC(=O)Nc1ccccc1` the T/C [1] was 92 % of control, the T/C [2] was 95 % of control and the T/C (dose: 200.0 mg/kg/injection, schedule: Q01DX009 (ip), vehicle: Klucel (hydroxypropylcellulose) (HPC)) was 96 % of control. The T/C [8] was 109 % of control, the T/C (dose: 400.0 mg/kg/injection, schedule: Q01DX009 (ip), vehicle: Klucel (hydroxypropylcellulose) (HPC)) was 91 % of control and the T/C [3] was 98 % of control.
For `CC(=O)CC(=O)Nc1ccc([N+](=O)[O-])cc1`, the T/C [4] was 97 % of control, the T/C [11] was 96 % of control and the T/C [5] was 111 % of control. The T/C [12] was 96 % of control, the T/C (dose: 400.0 mg/kg/injection, schedule: Q01DX009 (ip), vehicle: saline with Tween-80) was 102 % of control and the T/C [13] was 92 % of control.
For `C=C(Cl)COCC1CO1` (configuration not stated), the T/C (dose: 44.0 mg/kg/injection, schedule: Q01DX Z (ip), vehicle: saline) was 92 % of control, the T/C (dose: 66.0 mg/kg/injection, schedule: Q01DX Z (ip), vehicle: saline) was 110 % of control and the T/C (dose: 100.0 mg/kg/injection, schedule: Q01DX Z (ip), vehicle: saline) was 94 % of control.
